Results published in patent publication US9695155B2, “Herbicidal substituted pyrimidinyloxy benzene compounds” (E. I. DU PONT DE NEMOURS AND COMPANY, priority 2013, dated 2017).

Legend:
giant foxtail = experiment: Test A postemergence; assay type: in vivo, Setaria faberii
Outline: (§1)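 Compounds in non-phytotoxic solvent with surfactant applied as soil spray preemergence, or postemergence to plants 2-10 cm at one- to two-leaf stage, in loam/sand. After approximately 10 days in greenhouse, injury rated visually versus untreated controls, 0 (no effect) to 100 (complete control).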

pigweed = experiment: Test A postemergence; assay type: in vivo, Amaranthus retroflexus
Outline: as §1

corn [1] = experiment: Test A postemergence; assay type: in vivo, Zea mays
Outline: as §1

galium = experiment: Test C preemergence; assay type: in vivo, Galium aparine
From the text: (§2) Seeds of plant species selected from blackgrass (Alopecurus myosuroides), Italian ryegrass (Lolium multiflorum), wheat, winter (winter wheat, Triticum aestivum), galium (catchweed bedstraw, Galium aparine), corn (Zea mays), large (Lg) crabgrass (Digitaria sanguinalis), giant foxtail (Setaria faberii), johnsongrass (Sorghum halepense), lambsquarters (Chenopodium album), morningglory (Ipomoea coccinea), yellow nutsedge (Cyperus esculentus), pigweed (Amaranthus retroflexus), ragweed (common ragweed, Ambrosia elatior), soybean (Glycine max), barnyardgrass (Echinochloa crus-galli), oilseed rape (Brassica napus), waterhemp (common waterhemp, Amaranthus rudis), kochia (Kochia scoparia), wild oat (Avena fatua), surinam grass (Brachiaria decumbens), foxtail, green (green foxtail, Setaria viridis), goosegrass (Eleusine indica), bromegrass, downy (downy bromegrass, Bromus tectorum), nightshade (eastern black nightshade, Solanum ptycanthum), cocklebur (common cocklebur, Xanthium strumarium), cupgrass, woolly (woolly cupgrass, Eriochloa villosa), bermudagrass (Cynodon dactylon), sunflower, (common oilseed sunflower, Helianthus annuus), Russian thistle (Salsola kali), and velvetleaf (Abutilon theophrasti) were planted into a blend of loam soil and sand and treated preemergence with test chemicals formulated in a non-phytotoxic solvent mixture which included a surfactant.
(§3) At the same time, plants selected from these crop and weed species and also barley, winter (winter barley, Hordeum vulgare), windgrass (Apera spica-venti), chickweed (common chickweed, Stellaria media), deadnettle (henbit deadnettle, Lamium amplexicaule), and canarygrass (littleseed canarygrass, Phalaris minor) were planted in pots containing Redi-Earth® planting medium (Scotts Company, 14111 Scottslawn Road, Marysville, Ohio 43041) comprising spaghnum peat moss, vermiculite, wetting agent and starter nutrients and treated with postemergence applications of test chemicals formulated in the same manner. Plants ranged in height from 2 to 18 cm (1- to 4-leaf stage) for postemergence treatments. Treated plants and controls were maintained in a greenhouse for 13 to 15 days, after which time all species were compared to controls and visually evaluated. Plant response ratings, summarized in Table C, are based on a scale of 0 to 100 where 0 is no effect and 100 is complete control. A dash (-) response means no test result.

corn [2] = experiment: Test C preemergence; assay type: in vivo, Zea mays
Outline: (§4)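 Seeds were sown in loam–sand blend and sprayed preemergence, while plants at 1- to 4-leaf stage (2–18 cm) in peat-based medium received postemergence sprays; test chemicals were formulated in a non-phytotoxic solvent with surfactant. After 13–15 days in a greenhouse, injury was rated visually against controls, 0 (no effect) to 100 (complete control).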

lambsquarters = experiment: Test C preemergence; assay type: in vivo, Chenopodium album
Outline: as §4

morningglory = experiment: Test C preemergence; assay type: in vivo, Ipomoea coccinea
From the text: as §2, §3

ragweed = experiment: Test C preemergence; assay type: in vivo, Ambrosia elatior
Outline: as §4

velvetleaf = experiment: Test C preemergence; assay type: in vivo, Abutilon theophrasti
Outline: as §4

[3] = 31 g ai/ha, 0 to 100 scale, 0 no effect, 100 complete control
[4] = 125 g ai/ha, 0 to 100 scale, 0 no effect, 100 complete control
[5] = 16 g ai/ha, preemergence, scale 0 to 100 (0 no effect, 100 complete control)
[6] = 125 g ai/ha, preemergence, scale 0 (no effect) to 100 (complete control)
[7] = Preemergence, 62 g ai/ha, scale 0 to 100, 0 no effect, 100 complete control

Q: How did the pest or weed control at 31 g/ha (giant foxtail; Setaria faberi, post-emergence, 240 h, 31 g ai/ha, 0 to 100 scale, 0 no effect, 100 complete control, read-out: Plant response rating, Foxtail, Giant) turn out when `N#Cc1cccc(Oc2ncc(Cl)cn2)c1-n1cnc(C(F)(F)F)c1` [Compound 252, 3-[(5-chloro-2-pyrimidinyl)oxy]-2-[4-(trifluoromethyl)-1H-imidazol-1-yl]benzonitrile] was run?
A: The pest or weed control at 31 g/ha was 20%.

Q: And the pest or weed control at 125 g/ha (giant foxtail; Setaria faberi, post-emergence, 240 h, 125 g ai/ha, 0 to 100 scale, 0 no effect, 100 complete control, read-out: Plant response rating, Foxtail, Giant)?
A: The pest or weed control at 125 g/ha was 100%.

Q: And the pest or weed control at 500 g/ha (giant foxtail; Setaria faberi, post-emergence, 240 h, 500 g ai/ha, 0 to 100 scale where 0 is no effect and 100 is complete control, read-out: Plant response rating, Foxtail, Giant)?
A: The pest or weed control at 500 g/ha was 100%.

Q: What about the pest or weed control at 31 g/ha (pigweed; Amaranthus retroflexus, post-emergence, 31 g ai/ha, 0 to 100 scale, 0 no effect, 100 complete control, read-out: Plant response rating, Pigweed) of the same molecule?
A: The pest or weed control at 31 g/ha was 80%.

Q: What about the pest or weed control at 125 g/ha (pigweed; Amaranthus retroflexus, post-emergence, 125 g ai/ha, 0 to 100 scale, 0 no effect, 100 complete control, read-out: Plant response rating, Pigweed) of the same molecule?
A: Its pest or weed control at 125 g/ha is 100%.

Q: What about the pest or weed control at 500 g/ha (pigweed; Amaranthus retroflexus, post-emergence, 500 g ai/ha, 0 to 100 scale where 0 is no effect and 100 is complete control, read-out: Plant response rating, Pigweed) of the same molecule?
A: The pest or weed control at 500 g/ha was 100%.

Q: What about the Corn plant response rating (crop injury, 0 = no effect, 100 = complete kill) at 31 g/ha (corn [1]; Zea mays, post-emergence, 240 h, 31 g ai/ha, 0 to 100 scale, 0 no effect, 100 complete control) of the same molecule?
A: Its Corn plant response rating (crop injury, 0 = no effect, 100 = complete kill) at 31 g/ha is 20%.

Q: What about the Corn plant response rating (crop injury, 0 = no effect, 100 = complete kill) at 125 g/ha (corn [1]; Zea mays, post-emergence, 240 h, 125 g ai/ha, 0 to 100 scale, 0 no effect, 100 complete control) of the same molecule?
A: Its Corn plant response rating (crop injury, 0 = no effect, 100 = complete kill) at 125 g/ha is 60%.

Q: What about the Corn plant response rating (crop injury, 0 = no effect, 100 = complete kill) at 500 g/ha (corn [1]; Zea mays, post-emergence, 240 h, 500 g ai/ha, 0 to 100 scale where 0 is no effect and 100 is complete control) of the same molecule?
A: The Corn plant response rating (crop injury, 0 = no effect, 100 = complete kill) at 500 g/ha was 90%.

Q: What about the pest or weed control at 16 g/ha (galium; Galium, pre-emergence, 16 g ai/ha, preemergence, scale 0 to 100 (0 no effect, 100 complete control), read-out: Galium plant response rating) of the same molecule?
A: Its pest or weed control at 16 g/ha is 80%.

Q: And the pest or weed control at 125 g/ha (galium; Galium, pre-emergence, 125 g ai/ha, preemergence, scale 0 (no effect) to 100 (complete control), read-out: Galium plant response rating)?
A: The pest or weed control at 125 g/ha was 98%.

Q: And the pest or weed control at 62 g/ha (galium; Galium, pre-emergence, Preemergence, 62 g ai/ha, scale 0 to 100, 0 no effect, 100 complete control, read-out: Plant response rating, Galium)?
A: Its pest or weed control at 62 g/ha is 90%.

Q: What about the plant injury at 16 g/ha (corn [2]; Zea mays, pre-emergence, 16 g ai/ha, preemergence, scale 0 to 100 (0 no effect, 100 complete control), read-out: Corn plant response rating) of the same molecule?
A: The plant injury at 16 g/ha was 10%.

Q: What about the plant injury at 125 g/ha (corn [2]; Zea mays, pre-emergence, 125 g ai/ha, preemergence, scale 0 (no effect) to 100 (complete control), read-out: Corn plant response rating) of the same molecule?
A: The plant injury at 125 g/ha was 70%.

Q: What about the Corn plant response rating (crop injury, 0 = no effect, 100 = complete kill) at 62 g/ha (corn [2]; Zea mays, pre-emergence, Preemergence, 62 g ai/ha, scale 0 to 100, 0 no effect, 100 complete control) of the same molecule?
A: Its Corn plant response rating (crop injury, 0 = no effect, 100 = complete kill) at 62 g/ha is 40%.

Q: And the pest or weed control at 16 g/ha (lambsquarters; Chenopodium album, pre-emergence, 16 g ai/ha, preemergence, scale 0 to 100 (0 no effect, 100 complete control), read-out: Lambsquarters plant response rating)?
A: The pest or weed control at 16 g/ha was 98%.

Q: And the pest or weed control at 125 g/ha (lambsquarters; Chenopodium album, pre-emergence, 125 g ai/ha, preemergence, scale 0 (no effect) to 100 (complete control), read-out: Lambsquarters plant response rating)?
A: Its pest or weed control at 125 g/ha is 100%.

Q: And the pest or weed control at 62 g/ha (lambsquarters; Chenopodium album, pre-emergence, Preemergence, 62 g ai/ha, scale 0 to 100, 0 no effect, 100 complete control, read-out: Plant response rating, Lambsquarters)?
A: Its pest or weed control at 62 g/ha is 100%.

Q: And the pest or weed control at 16 g/ha (morningglory; Ipomoea, pre-emergence, 16 g ai/ha, preemergence, scale 0 to 100 (0 no effect, 100 complete control), read-out: Morningglory plant response rating)?
A: Its pest or weed control at 16 g/ha is 45%.

Q: And the pest or weed control at 125 g/ha (morningglory; Ipomoea, pre-emergence, 125 g ai/ha, preemergence, scale 0 (no effect) to 100 (complete control), read-out: Morningglory plant response rating)?
A: The pest or weed control at 125 g/ha was 100%.

Q: And the pest or weed control at 62 g/ha (morningglory; Ipomoea, pre-emergence, Preemergence, 62 g ai/ha, scale 0 to 100, 0 no effect, 100 complete control, read-out: Plant response rating, Morningglory)?
A: The pest or weed control at 62 g/ha was 95%.

Q: What about the pest or weed control at 16 g/ha (ragweed; Ambrosia artemisiifolia, pre-emergence, 16 g ai/ha, preemergence, scale 0 to 100 (0 no effect, 100 complete control), read-out: Ragweed plant response rating) of the same molecule?
A: Its pest or weed control at 16 g/ha is 40%.

Q: What about the pest or weed control at 125 g/ha (ragweed; Ambrosia artemisiifolia, pre-emergence, 125 g ai/ha, preemergence, scale 0 (no effect) to 100 (complete control), read-out: Ragweed plant response rating) of the same molecule?
A: Its pest or weed control at 125 g/ha is 100%.

Q: What about the pest or weed control at 62 g/ha (ragweed; Ambrosia artemisiifolia, pre-emergence, Preemergence, 62 g ai/ha, scale 0 to 100, 0 no effect, 100 complete control, read-out: Plant response rating, Ragweed) of the same molecule?
A: The pest or weed control at 62 g/ha was 98%.

Q: What about the pest or weed control at 16 g/ha (velvetleaf; Abutilon theophrasti, pre-emergence, 16 g ai/ha, preemergence, scale 0 to 100 (0 no effect, 100 complete control), read-out: Velvetleaf plant response rating) of the same molecule?
A: The pest or weed control at 16 g/ha was 75%.

Q: And the pest or weed control at 125 g/ha (velvetleaf; Abutilon theophrasti, pre-emergence, 125 g ai/ha, preemergence, scale 0 (no effect) to 100 (complete control), read-out: Velvetleaf plant response rating)?
A: Its pest or weed control at 125 g/ha is 100%.

Q: What about the pest or weed control at 62 g/ha (velvetleaf; Abutilon theophrasti, pre-emergence, Preemergence, 62 g ai/ha, scale 0 to 100, 0 no effect, 100 complete control, read-out: Plant response rating, Velvetleaf) of the same molecule?
A: The pest or weed control at 62 g/ha was 100%.

Q: Which results are given for `Fc1cccc(Oc2ncc(Cl)cn2)c1-n1cc(OCC(F)(F)F)cn1` [Compound 270]?
A: Plant response rating, Foxtail, Giant (giant foxtail; [3]): 10; Plant response rating, Foxtail, Giant (giant foxtail; [4]): 90; Plant response rating, Pigweed (pigweed; [3]): 60; Plant response rating, Pigweed (pigweed; [4]): 100; Plant response rating, Corn (corn [1]; [3]): 20; Plant response rating, Corn (corn [1]; [4]): 50; Galium plant response rating (galium; [5]): 70; Galium plant response rating (galium; [6]): 100; Plant response rating, Galium (galium; [7]): 95; Corn plant response rating (corn [2]; [5]): 0; Corn plant response rating (corn [2]; [6]): 55; Plant response rating, Corn (corn [2]; [7]): 20; Lambsquarters plant response rating (lambsquarters; [5]): 80; Lambsquarters plant response rating (lambsquarters; [6]): 100; Plant response rating, Lambsquarters (lambsquarters; [7]): 100; Morningglory plant response rating (morningglory; [5]): 0; Morningglory plant response rating (morningglory; [6]): 100; Plant response rating, Morningglory (morningglory; [7]): 55; Ragweed plant response rating (ragweed; [5]): 0; Ragweed plant response rating (ragweed; [6]): 70; Plant response rating, Ragweed (ragweed; [7]): 45; Velvetleaf plant response rating (velvetleaf; [5]): 0; Velvetleaf plant response rating (velvetleaf; [6]): 100; Plant response rating, Velvetleaf (velvetleaf; [7]): 98
